According to US20170306409A1, “CANCER PATIENT SELECTION FOR ADMINISTRATION OF WNT SIGNALING INHIBITORS USING RNF43 MUTATION STATUS” (NOVARTIS AG, priority 2012, published 2017):

Assays:
Assay type in all cases: cell-based, human
BXPC3 = test: foci formation assay; settings: 1 μM LGK974
Description: (§1) To assay foci formation, 6,000˜12,000 cells of indicated cell lines were seeded in 6 well tissue culture plate in 2 ml growth media. After overnight culture for cell attachment, media was replaced with fresh growth media containing 1 μM LGK974 in the absence and presence of recombinant Wnt3a. For DOX-inducible β-catenin shRNA experiment, cells were treated 5 ng/ml doxycycline. When cell colonies reached desirable size, cells were fixed with 4% formalin in PBS and stained with crystal violet solution. After a few washes, plates were dried and imaged.
(§2) Identification of pancreatic cancer lines containing inactivation mutation of RNF43. Discovery of LGK974, a potent and selective inhibitor of Porcupine, offered us a unique chemical tool to systemically examine Wnt dependency in a large panel of cancer cell lines. We tested LGK974 in a large panel of pancreatic cancer cell lines using foci formation assay. Foci formation assay was utilized because it is more sensitive than routine growth assays such as CellTiter-Glo, and it is less affected by the different growth rates of various cell lines.

CFPAC-1 = test: foci formation assay; settings: 1 μM LGK974
Description: as §1, §2

Capan-1 = test: foci formation assay; settings: 1 μM LGK974
Description: as §1, §2

DanG = test: foci formation assay; settings: 1 μM LGK974
Description: as §1, §2

HPAFII = test: foci formation assay; settings: 1 μM LGK974
Description: as §1, §2

Hs766T = test: foci formation assay; settings: 1 μM LGK974
Description: as §1, §2

HuPT3 = test: foci formation assay; settings: 1 μM LGK974
Description: as §1, §2

KCl-MOH1 = test: foci formation assay; settings: 1 μM LGK974
Description: as §1, §2

KLM1 = test: foci formation assay; settings: 1 μM LGK974
Description: as §1, §2

KP-1NL = test: foci formation assay; settings: 1 μM LGK974
Description: as §1, §2

KP1-N = test: foci formation assay; settings: 1 μM LGK974
Description: as §1, §2

KP2 = test: foci formation assay; settings: 1 μM LGK974
Description: as §1, §2

KP3 = test: foci formation assay; settings: 1 μM LGK974
Description: as §1, §2

PANC-1 = test: foci formation assay; settings: 1 μM LGK974
Description: as §1, §2

PK1 [1] = test: foci formation assay; settings: 1 μM LGK974
Description: as §1, §2

PSN-1 = test: foci formation assay; settings: 1 μM LGK974
Description: as §1, §2

PaTu-8902 = test: foci formation assay; settings: 1 μM LGK974
Description: as §1, §2

PaTu-8988S = test: foci formation assay; settings: 1 μM LGK974
Description: as §1, §2

PaTu-8988T = test: foci formation assay; settings: 1 μM LGK974
Description: as §1, §2

Pan02.03 = test: foci formation assay; settings: 1 μM LGK974
Description: as §1, §2

Panc03.27 = test: foci formation assay; settings: 1 μM LGK974
Description: as §1, §2

Panc04.03 = test: foci formation assay; settings: 1 μM LGK974
Description: as §1, §2

Panc05.04 = test: foci formation assay; settings: 1 μM LGK974
Description: as §1, §2

Panc10.05 = test: foci formation assay; settings: 1 μM LGK974
Description: as §1, §2

QGP-1 = test: foci formation assay; settings: 1 μM LGK974
Description: as §1, §2

SU86.86 = test: foci formation assay; settings: 1 μM LGK974
Description: as §1, §2

SUIT-2 = test: foci formation assay; settings: 1 μM LGK974
Description: as §1, §2

YAPC = test: foci formation assay; settings: 1 μM LGK974
Description: as §1, §2

HPAFII cells = test: cell colony formation assay (FIG. 1)
Description: (§3) FIG. 1(a) is a photograph showing a HPAFII cell colony formation assay in the presence of LGK974 at two concentrations (300 nM and 1 μM). 1300 cells were seeded into media with indicated treatment and the media were replaced every 5 days until crystal violet staining at day 14. […] FIG. 1(b) is a photograph showing PK1 (having a functional RNF43 protein) and HPAFII (having a nonfunctional RNF43 protein) cell colony formation assays in the presence of 1 μM LGK974 alone or together with daily addition of 10% Wnt3a conditioned media (CM).

PK1 [2] = test: cell colony formation assay (FIG. 1); settings: PK1 (RNF43 wild-type); 1 μM LGK974; 10 day assay
Description: as §3

Cc1cc(-c2ncc(CC(=O)Nc3ccc(-c4cnccn4)cn3)cc2C)ccn1 [LGK974, 2-[5-methyl-6-(2-methylpyridin-4-yl)pyridin-3-yl]-N-[5-(pyrazin-2-yl)pyridin-2-yl]acetamide]
Growth inhibition in foci formation assay (BXPC3): No | Growth inhibition in foci formation assay (CFPAC-1): No | Growth inhibition in foci formation assay (Capan-1): No | Growth inhibition in foci formation assay (DanG): No | Growth inhibition in foci formation assay (HPAFII): strong growth inhibitory activity and strongly inhibited and Yes | Growth inhibition in foci formation assay (Hs766T): No | Growth inhibition in foci formation assay (HuPT3): No | Growth inhibition in foci formation assay (KCl-MOH1): No | Growth inhibition in foci formation assay (KLM1): No | Growth inhibition in foci formation assay (KP-1NL): No | Growth inhibition in foci formation assay (KP1-N): No | Growth inhibition in foci formation assay (KP2): No | Growth inhibition in foci formation assay (KP3): No | Growth inhibition in foci formation assay (PANC-1): No | Growth inhibition in foci formation assay (PK1 [1]): without significant effect and No | Growth inhibition in foci formation assay (PSN-1): No | Growth inhibition in foci formation assay (PaTu-8902): No | Growth inhibition in foci formation assay (PaTu-8988S): strong growth inhibitory activity and strongly inhibited and Yes | Growth inhibition in foci formation assay (PaTu-8988T): not sensitive and No | Growth inhibition in foci formation assay (Pan02.03): No | Growth inhibition in foci formation assay (Panc03.27): No | Growth inhibition in foci formation assay (Panc04.03): No | Growth inhibition in foci formation assay (Panc05.04): No | Growth inhibition in foci formation assay (Panc10.05): not sensitive and No | Growth inhibition in foci formation assay (QGP-1): No | Growth inhibition in foci formation assay (SU86.86): No | Growth inhibition in foci formation assay (SUIT-2): No | Growth inhibition in foci formation assay (YAPC): without significant effect and No | colony formation (HPAFII cells; HPAFII (RNF43 mutant), 1 μM LGK974 alone): inhibited | colony formation (HPAFII cells; HPAFII, 300 nM and 1 μM LGK974, crystal violet staining at day 14): inhibits colony formation | colony formation, inhibition with exogenous Wnt3a (HPAFII cells; HPAFII, 1 μM LGK974 with daily addition of 10% Wnt3a conditioned media): partially rescued | colony formation (PK1 [2]): no sensitivity
